The source of these data is patent US20050234041A1, “Substituted 1-benzazepines and derivatives thereof” (priority 2001, published 2005).

For one data set, the system named is bacteria. Put plainly: Antibacterial activity, broth dilution (Table III). The format is cell-based. To be noted: graded activity, organism not given. From the text: (§1) Antibacterial activity can be determined by several standard methods well known by those skilled in the art, including disc diffusions methods, broth dilution minimal inhibitory concentration (MIC) methods, etc., including the detailed method outlined below and as defined by the National Committee of Clinical Laboratory Standards in the United States.
(§2) MIC, Broth Dilution Method
(§3) Cultures of bacteria are initially brought up from the freezer stocks onto chocolate agar plates by streaking a loop-full, then incubated for 18 hours at 35-37° C. in a 5% CO2 incubator.
(§4) Five to 10 colonies are picked from the chocolate agar plate for subculture to Brain-Heart Infusion (BHI) broth or Mueller Hinton broth or BHI containing 4% serum and incubated as described.
(§5) Evaluate the optical density of the organisms in the wells of a 96 well microtiter plate with and without the test compound. The optical density of the organisms in the presence of an active compound will be less than the optical density of the same organism untreated. The activity of the compounds is described as either negative or the lowest concentration inhibiting growth. The results are depicted in Table III, where +/− represents the least activity and ++++ represents the greatest activity. In Table IV, the results are depicted where MIC represents the lowest concentration of antibiotic that inhibits bacterial growth.

In a further data set the test system is Helicobacter pylori. Nature of the data set: MIC, broth dilution method, Helicobacter pylori. The class given is cell-based. To be noted: for MIC: Helicobacter pylori.
From the text: as §1, §2, §3, §4, §5
(In general: Broth dilution looks for growth in wells or tubes with falling amounts of substance.)

In a further data set the test system is Campylobacter jejuni. Put plainly: MIC, broth dilution method, Campylobacter jejuni. The format is cell-based. The note with it: for MIC: Campylobacter jejuni.
From the text: as §1, §2, §3, §4, §5

Setting [1] is: Table IV, MIC, lowest concentration that inhibits bacterial growth, read-out: Antibacterial Activity (micrograms/ml) Helicobacter pylori.
Setting [2] is: Table IV, MIC, lowest concentration that inhibits bacterial growth, read-out: Antibacterial Activity (micrograms/ml) Campylobacter jejuni.
Setting [3] is: Table IV, MIC, lowest concentration that inhibits bacterial growth.

Values after ≈ are worked out from the molar mass of the structure shown. Like-named read-outs stand apart in the source and are kept apart here.

For `O=C1CCCc2ccc(O)cc2N1` [Example 33, 8-Hydroxy-2,3,4,5-tetrahydro-1H-1-benzazepine-2-one], the melting point fell in the range of 226 to 227 °C. The “Antibacterial Activity” value with bacteria is listed as “++++”. Further, the MIC in the data set with Helicobacter pylori (setting [1]) was determined as 0.78 µg/mL (≈ 4.4 µM). Further, the MIC with Campylobacter jejuni (setting [2]) was more than 200 µg/mL.
As to `COc1cc2c(cc1N1CCN(C(=O)OCc3ccccc3)CC1)CCC(C(=O)OC(C)(C)C)C(=O)N2Cc1cccc(F)c1` (racemic) [Example 31, 7-[(4-Benzyloxycarbonyl)piperazin-1-yl]-3(R,S)-tert-butoxycarbonyl-1-(3-fluorobenzyl)-8-methoxy-2,3,4,5-tetrahydro-1 H-1-benzazepine-2-one], the “Antibacterial Activity” value in the data set on bacteria is recorded as “++++”. Moreover, the “Antibacterial Activity (micrograms/ml) Helicobacter pylori” value in the data set with Helicobacter pylori (setting [3]) was 0.78 micrograms/ml. For the same compound, the “Antibacterial Activity (micrograms/ml) Campylobacter jejuni” value with Campylobacter jejuni (setting [3]) was more than 200 micrograms/ml.
For `CCN1C(=O)CCCc2cc(N3CCN(C)CC3)c(OC)cc21` [Example 10], in that order: “+/−”, more than 200 micrograms/ml and more than 200 micrograms/ml.
`CCN1C(=O)C(C(=O)O)CCc2cc(Br)c(OC)cc21` (racemic) [Example 17, 7-Bromo-3(R,S)-carboxyl-1-ethyl-8-methoxy-2,3,4,5tetrahydro-1H-1-benzazepine-2-one]: the melting point is 188 to 189 °C (dec.). In the data set on bacteria, the “Antibacterial Activity” value is “+/−”. In addition, the MIC in the data set with Helicobacter pylori (setting [1]) was 200 µg/mL (≈ 584 µM). Moreover, the MIC in the data set with Campylobacter jejuni (setting [2]) was more than 200 µg/mL.
`CCN1C(=O)CCCc2cc(N3CCNCC3)c(OC)cc21.Cl` [Example 22, 1-ethyl-8-methoxy-7-(piperazin-1-yl)-2,3,4,5-tetrahydro-1H-1-benzazepine-2-one hydrochloride]: the “Antibacterial Activity” value in the data set with bacteria is “−”. Moreover, the MIC in the data set with Helicobacter pylori (setting [1]) and in the data set on Campylobacter jejuni (setting [2]) was more than 200 µg/mL each time.
As for `CCOC(=O)NC(=S)Nc1cc2c(cc1OC)NC(=O)C(C(=O)OC(C)(C)C)CC2` (racemic) [Example 176, 3(R,S)-tert-Butoxycarbonyl-7-[(ethoxycarbonylamino)thiocarbonyl)]amino-8-methoxy-2,3,4,5-tetrahydro-1H-1-benzazepine-2-one], the “Antibacterial Activity” value in the data set with bacteria was “++++”. Also, in the data set on Helicobacter pylori (setting [3]), the “Antibacterial Activity (micrograms/ml) Helicobacter pylori” value is reported as 4 micrograms/ml. Besides, the “MIC (μg/mL) H. pylori” value against Helicobacter pylori (Table V) was 4 µg/mL (≈ 9.14 µM). In addition, the “Antibacterial Activity (micrograms/ml) Campylobacter jejuni” value in the data set on Campylobacter jejuni (setting [3]) is more than 250 micrograms/ml. In addition, the “MIC (μg/mL) C. jejuni” value against Campylobacter jejuni (Table V) is given as >250, μg/mL.
For the compound `CCN1C(=O)C(C(=O)O)CCc2cc(N3CCNCC3)c(OC)cc21.Cl` (racemic) [Example 15, 3(R, S)-Carboxyl-1-ethyl-8-methoxy-7-(piperazin-1-yl)-2,3,4,5-tetrahydro-1H-1-benzazepine-2-one hydrochloride], the melting point was 173 to 176 °C (dec.). In addition, in the data set with bacteria, the “Antibacterial Activity” value was “−”. For the same compound, the MIC in the data set on Helicobacter pylori (setting [1]) is more than 200 µg/mL. Further, the MIC in the data set on Campylobacter jejuni (setting [2]) was more than 200 µg/mL.
For `COc1cc2c(cc1Br)CCC(C(=O)OC(C)(C)C)C(=O)N2Cc1cccc(F)c1` (racemic) [Example 30, 7-Bromo-3(R,S)-tert-butoxycarbonyl-1-(3-fluorobenzyl)-8-methoxy-2,3,4,5-tetrahydro-1H-1-benzazepine-2-one], the melting point lay within 146 to 148 °C. The “Antibacterial Activity” value in the data set with bacteria was “++++”. Besides, the MIC in the data set on Helicobacter pylori (setting [1]) was 1.56 µg/mL (≈ 3.26 µM). The MIC in the data set with Campylobacter jejuni (setting [2]) was more than 200 µg/mL.
Turning to `CCN1C(=O)C(C(=O)NC(C)(C)C)CCc2cc(Br)c(OC)cc21` (racemic) [Example 29, 7-bromo-3(R,S)-N-(tert-butyl)aminocarbonyl-1-ethyl-8-methoxy-2,3,4,5-tetrahydro-1H-1-benzazepine-2-one], the “Antibacterial Activity” value in the data set with bacteria is reported as “−”. Besides, the MIC in the data set on Helicobacter pylori (setting [1]) and in the data set with Campylobacter jejuni (setting [2]) was more than 200 µg/mL each time.
In turn, `CCN1C(=O)C(C(=O)OC(C)(C)C)C=Cc2ccc(OC)cc21` (racemic) [Example 16, 3(R,S)-tert-Butoxycarbonyl-1-ethyl-8-methoxy-2,3-dihydro-1H-1-benzazepine-2-one] registered a melting point of 173 to 174 °C. In addition, in the data set on bacteria, the “Antibacterial Activity” value was “++++”. The MIC in the data set with Helicobacter pylori (setting [1]) was more than 6.25 µg/mL. In addition, the MIC with Campylobacter jejuni (setting [2]) is more than 200 µg/mL.
With `CC(C)(C)OC(=O)C1CCc2cc([N+](=O)[O-])c(O)cc2NC1=O` (racemic) [Example 220, 3(R,S)-tert-Butoxycarbonyl-8-hydroxyl-7-nitro-2,3,4,5-tetrahydro-1H-1-benzazepine-2-one], the melting point was 189 to 191 °C (dec.). Further, the MIC in the data set with Helicobacter pylori (Table V, read-out: MIC (μg/mL) H. pylori) amounted to 8 µg/mL (≈ 24.8 µM). Further, the MIC with Campylobacter jejuni (Table V, read-out: MIC (μg/mL) C. jejuni) was 250 µg/mL (≈ 776 µM).
Turning to `COc1cc2c(cc1Br)CCC(C(=O)OC(C)(C)C)C(=O)N2` (racemic) [Example 32, 7-Bromo-3(R,S)-tert-butoxycarbonyl-8-methoxy-2,3,4,5-tetrahydro-1H-1-benzazepine-2-one], the melting point is 207 to 208 °C. Further, in the data set on bacteria, the “Antibacterial Activity” value is “++++”. Moreover, the MIC in the data set with Helicobacter pylori (setting [1]) was 0.78 µg/mL (≈ 2.11 µM). Also, in the data set on Campylobacter jejuni (setting [2]), the MIC is more than 200 µg/mL.

The term melting point denotes the temperature of the solid-liquid transition.
